Here are results for 1 molecule from article PMC5947712, “High‐Throughput Kinetic Analysis for Target‐Directed Covalent Ligand Discovery” (Angewandte Chemie (International Ed. in English), 2018).

One test addresses Cdk2(WT) (Homo sapiens, UniProt P24941). Briefly: Intact protein mass spectrometry of labelling, Cdk2(WT). In kind it is binding. Set-up: made in house; host or cells: E. coli Tuner(DE3). The method, then:
Supplementary, Figure, S6!|!Acrylamide, 1,selectivity, profile.!Exponential! regressions! from!kinetic! analysis! of! acrylamide!1!
(0.5!mM)!in!reaction!with!various!thiols!(5!µM).!
Supplementary, Figure, S7!|!Cdk2(WT),is, mono%modified, by, acrylamide, 1.!(a)!Cdk2(WT)! was! phosphorylated! with! CAK1.!
pCdk2(WT)! (5! µM)! was! then! incubated! with! acrylamide!1!(0.5! mM)! in! 100! mM! phosphate! buffer!(pH! 8.0)! at! 4! ˚C! for! 18! hours.!
IntactRprotein! mass! spectra! show! complete! phosphorylation! (ΔMW! =! 80! Da)! and! complete! acrylamide! labeling! (ΔMW! =!
288!Da).!(b)!Cdk2(WT)! (5! µM)! was! incubated! with! acrylamide!1!(0.5! mM)! in! 100! mM! phosphate! buffer! (pH! 8.0)!in! the!presR
ence! or! absence! of! GSH! (1! mM)! at! room! temperature.!The! degree! of! labelling! was! monitored! by!intactRprotein! mass!specR
trometry!after!6.25!and!24!h.!The!presence!of!1!mM!GSH!was!found!to!slow!the!rate!of!Cdk2!modification!by!a!factor!of!~2.! […]
(§1) Hs!Cyclin!A2!F!5’![…]!
(§2) Hs!Cyclin!A2!R!5’![…]!
(§3) Sc!CAK1!R!5’!GAATTCttatgggcttttctaattcttgcaag!
GSTBCdk2" and" GSTBcyclin" A2:! Harvested! cells! were! resuspended! in! 50! mM! HEPES! buffer! (pH7.5)! containing! 150! mM! NaCl,! […]
(§4) labelling! reached! completion! (as! monitored! by! fluorescence! quench! assay! and/or! intact! protein! mass! spectrometry).! […]

The next test addresses T1, Cdk2(C177A) (Homo sapiens, UniProt P24941, C177A).
T1 construct: made in house; host or cells: E. coli Tuner(DE3)
Briefly: Intact protein mass spectrometry of labelling, Cdk2(C177A). The class given is binding. The method, then:
as §1, §2, §3
GSTBCdk2" and" GSTBcyclin" A2:! Harvested! cells! were! resuspended! in! 50! mM! HEPES! buffer! (pH7.5)! containing! 150! mM! NaCl,!
10!mM!MgCl2,!2!mM!dithiothreitol!(DTT),!0.5!mg!mLR1!lysozyme,!and!0.01%!Triton!XR100!at!4!˚C!and!incubated!for!30!minutes.!
After! sonication! and! centrifugation! (40! min,! 16000! g),! the! supernatant! was! incubated! for! 1! h! with! glutathioneRSepharose!
beads,! washed! with! lysis! buffer! and! the! desired! protein! eluted! with! 10! mM! GSH! (100! mM! Tris,! pH! 8).! After! incubation! the! deR
sired! protein! was! cleaved! from! the! GST! tag! with! PreScission! protease! (100:1)! at! 4 °C! for! 4! hours,! the! cleaved! GST! tag! was!
removed! with! glutathioneRSepharose! beads.! Cdk2! was! concentrated! and! then! loaded! onto! a! Superdex! 75! (16/60)! column,!
eluting! with! 100! mM! phosphate! buffer! containing! 50! mM! DTT.! Purified! Cdk2! was! concentrated! to! 10! mg! mLR1!and! stored! at!–
80! ˚C.! Cyclin! A2! was! purified! by! glutathioneRSepharose! affinity! as! described! above! with! the! following! amendments:! 100! mM!
MgCl2!was! added! after! GST! cleavage! to! minimise! protein! aggregation! and! gel! filtration! was! performed! with! 50! mM! […]
as §4

Regarding `C=CC(=O)N1CCN(C(=O)OC(C)(C)C)c2ccccc21` [Acrylamide 1], at Cdk2(WT) (Cdk2(WT) 5 µM, compound 0.5 mM, pH 8.0, room temperature, monitored after 6.25 and 24 h), the “factor by which 1 mM GSH slows the rate of Cdk2 modification” value is ~ 2. Moreover, on Cdk2(WT) (even in the presence of millimolar glutathione), the “modification of Cdk2(WT) by intact protein mass spectrometry” value is “mono‐modifies”. Moreover, the “modification of Cdk2(C177A) by intact protein mass spectrometry” value at Cdk2(C177A) is “unaffected”.
